Experimental data taken from patent publication US20260034123A1 (Cedilla Therapeutics, Inc., priority 2022, published 2026).
Values joined by “and” are separate entries in the source; they are usually repeats but may differ in a detail not shown here. Identical values can stand only once.

Tests used:
Kuramochi cells RB-WT = test: IncuCyte Kuramochi cell proliferation assay, RB-WT; format: cell-based; settings: 72 hours, cell count
Procedure, shortened: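 GI50 was derived by curve-fitting DMSO-normalized fold change in nuclear count between 0 and 72 h. Counts came from images of Kuramochi cells carrying mApple-H2B. Compounds were dosed over 10 points at 1/2-log spacing from a 20 µM top concentration.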

CDK2/Cyclin E1 [1] = target: T1, CDK2/Cyclin E1 (Homo sapiens, UniProt P24941); test: Caliper LabChip EZ Reader mobility shift assay; format: biochemical; settings: 2.5 nM CDK2/Cyclin E1(14-475), 100 μM ATP, 30 min preincubation; read-out: Caliper Assay (CDK2/CCNE1): IC50
Procedure, shortened: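 Mobility-shift assay with CDK2/Cyclin E1(14-475) at 2.5 nM, 100 μM ATP and 1.5 μM 5-FAM-QSPKKG-CONH2 in HEPES pH 7.5 buffer with 0.1% DMSO. Compounds were preincubated with enzyme and ATP for 30 min, the reaction ran 100 min and was stopped with EDTA. IC50 came from a four-parameter fit of normalized conversion ratio.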

CDK2/Cyclin E1 [2] = target: T1, CDK2/Cyclin E1; test: ADP-Glo Luminescent Kinase Assay (CDK2/E1-37C); format: biochemical; settings: 0.18 nM CDK2/Cyclin E1, 100 μM ATP, Histone H1, 37° C.; read-out: ADPGLO (CDK2/E1-37C): IC50
Procedure, shortened: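 IC50 fitted by four-parameter equation from ADP-Glo luminescence converted to % activity. Compounds were preincubated 60 min at 37 °C with enzyme, then kinase reaction ran 90 min at 37 °C with 0.18 nM enzyme, 100 μM ATP, Histone H1 ([…]), pH 7.5 HEPES, Mg2+, DTT.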

[3] = tested on: mouse models of polycystic kidney disease; settings: Bukanov et al., Nature 2006; cited from earlier work

Row | Compound | IC50 (CDK2/Cyclin E1 [1]) | IC50 (CDK2/Cyclin E1 [2]) | IC50 (Kuramochi cells RB-WT) | arrest of cystic kidney disease [3]
1 | CC1(C)C[C@@H]1C(=O)N1CC2(CN(C(=O)c3cncs3)C[C@H]2COCc2cccc(C3CCOCC3)c2)C1 [Compound I-39, ((S)-2-((S)-2,2-dimethylcyclopropane-1-carbonyl)-8-(((3-(tetrahydro-2H-pyran-4-yl)benzyl)oxy)methyl)-2,6-diazaspiro[3.4]octan-6-yl)(thiazol-5-yl)methanone] | 0.1 to 1 µM | > 10 µM | > 10 µM | 
2 | O=C(O)C(Cc1cccc(-c2ccc(C(F)(F)F)cc2)n1)CC1CN(C(=O)c2cnn(Cc3ccc(C(F)(F)F)cc3)c2)CC12CN(C(=O)C1(C(F)(F)F)CC1)C2 (stereo not shown) [Compound I-50, 2-((6-(1-(4-(trifluoromethyl)benzyl)-1H-pyrazole-4-carbonyl)-2-(1-(trifluoromethyl)cyclopropane-1-carbonyl)-2,6-diazaspiro[3.4]octan-8-yl)methyl)-3-(6-(4-(trifluoromethyl)phenyl)pyridin-2-yl)propanoic acid] | > 10 µM | > 10 µM | > 10 µM | 
3 | CC[C@H](CO)Nc1nc(NCc2ccccc2)c2ncn(C(C)C)c2n1 [roscovitine] |  |  |  | effective arrest of cystic kidney disease

Continued, in another order:

Row | IC50 (CDK2/Cyclin E1 [1]) | IC50 (CDK2/Cyclin E1 [2]) | Compound | IC50 (Kuramochi cells RB-WT) | arrest of cystic kidney disease [3]
4 | 0.1 to 1 µM | > 10 µM | CC1(C)C[C@@H]1C(=O)N1CC2(CN(C(=O)c3cncs3)C[C@H]2COCc2ccn(C3CCCC3)n2)C1 [Compound I-38, ((S)-8-(((1-cyclopentyl-1H-pyrazol-3-yl)methoxy)methyl)-2-((S)-2,2-dimethylcyclopropane-1-carbonyl)-2,6-diazaspiro[3.4]octan-6-yl)(thiazol-5-yl)methanone] | > 10 µM | 
5 | 1 to 10 µM and 0.1 to 1 µM | 5 to 10 µM | CC1(C)C[C@@H]1C(=O)N1CC2(CN(C(=O)c3cncs3)C[C@H]2COCc2cccc(C3CCOCC3)n2)C1 [Compound I-49, (2-((S)-2,2-dimethylcyclopropane-1-carbonyl)-8-(((6-(tetrahydro-2H-pyran-4-yl)pyridin-2-yl)methoxy)methyl)-2,6-diazaspiro[3.4]octan-6-yl)(thiazol-5-yl)methanone] | > 10 µM | 
